Reference: ChEMBL document CHEMBL3813700, “New halogenated tris-(phenylalkyl)amines as h5-HT2B receptor ligands” (Bioorg Med Chem Lett, 2016)

Tests used:
[1] = biological target: 5-hydroxytryptamine receptor 2A (Homo sapiens, UniProt P28223); assay: Displacement of [3H]ketanserin from human 5-HT2A receptor measured after 90 mins by microbeta scintillation counting method
[2] = biological target: T1, 5-hydroxytryptamine receptor 2B (Homo sapiens, UniProt P41595); assay: Displacement of [3H]LSD from human 5-HT2B receptor measured after 90 mins by microbeta scintillation counting method
T1 sequence (P41595 whole entry): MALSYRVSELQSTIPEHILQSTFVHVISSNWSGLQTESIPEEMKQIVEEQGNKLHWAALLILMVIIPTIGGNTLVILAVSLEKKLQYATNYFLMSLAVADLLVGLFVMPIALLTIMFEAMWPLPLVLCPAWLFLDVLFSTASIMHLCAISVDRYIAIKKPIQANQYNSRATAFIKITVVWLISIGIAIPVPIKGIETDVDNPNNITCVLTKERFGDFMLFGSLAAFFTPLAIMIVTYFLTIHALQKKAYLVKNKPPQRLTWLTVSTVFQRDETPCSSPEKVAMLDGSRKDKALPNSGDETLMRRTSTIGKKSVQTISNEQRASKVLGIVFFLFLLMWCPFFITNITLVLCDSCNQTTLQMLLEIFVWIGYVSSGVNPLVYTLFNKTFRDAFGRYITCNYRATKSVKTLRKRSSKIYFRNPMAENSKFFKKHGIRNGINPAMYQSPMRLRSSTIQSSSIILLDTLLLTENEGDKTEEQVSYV

[3] = biological target: T2, 5-hydroxytryptamine receptor 2C (Homo sapiens, UniProt P28335); assay: Displacement of [3H]mesulergine from human 5-HT2C receptor measured after 90 mins by microbeta scintillation counting method
T2 sequence (P28335 whole entry): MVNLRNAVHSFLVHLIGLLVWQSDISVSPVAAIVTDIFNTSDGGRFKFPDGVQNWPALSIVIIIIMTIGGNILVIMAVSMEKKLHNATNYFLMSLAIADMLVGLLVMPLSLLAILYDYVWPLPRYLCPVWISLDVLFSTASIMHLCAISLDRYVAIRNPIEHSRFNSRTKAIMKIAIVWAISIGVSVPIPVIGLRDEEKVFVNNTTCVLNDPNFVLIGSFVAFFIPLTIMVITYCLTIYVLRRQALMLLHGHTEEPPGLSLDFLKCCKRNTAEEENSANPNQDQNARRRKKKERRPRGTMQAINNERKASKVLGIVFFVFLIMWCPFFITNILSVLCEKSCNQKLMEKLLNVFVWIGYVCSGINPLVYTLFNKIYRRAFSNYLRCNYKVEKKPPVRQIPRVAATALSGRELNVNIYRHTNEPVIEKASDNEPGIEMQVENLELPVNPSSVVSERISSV

Homo sapiens [4] = species on record: Homo sapiens; assay: Selectivity index, ratio of Ki for human 5-HT2A receptor to Ki for human 5-HT2B receptor
Homo sapiens [5] = species on record: Homo sapiens; assay: Selectivity index, ratio of Ki for human 5-HT2C receptor to Ki for human 5-HT2B receptor
[6] = biological target: T1, 5-hydroxytryptamine receptor 2B; assay: Antagonist activity at human 5-HT2B receptor by PDSP assay

Chain of 5-hydroxytryptamine receptor 2A (P28223 whole entry): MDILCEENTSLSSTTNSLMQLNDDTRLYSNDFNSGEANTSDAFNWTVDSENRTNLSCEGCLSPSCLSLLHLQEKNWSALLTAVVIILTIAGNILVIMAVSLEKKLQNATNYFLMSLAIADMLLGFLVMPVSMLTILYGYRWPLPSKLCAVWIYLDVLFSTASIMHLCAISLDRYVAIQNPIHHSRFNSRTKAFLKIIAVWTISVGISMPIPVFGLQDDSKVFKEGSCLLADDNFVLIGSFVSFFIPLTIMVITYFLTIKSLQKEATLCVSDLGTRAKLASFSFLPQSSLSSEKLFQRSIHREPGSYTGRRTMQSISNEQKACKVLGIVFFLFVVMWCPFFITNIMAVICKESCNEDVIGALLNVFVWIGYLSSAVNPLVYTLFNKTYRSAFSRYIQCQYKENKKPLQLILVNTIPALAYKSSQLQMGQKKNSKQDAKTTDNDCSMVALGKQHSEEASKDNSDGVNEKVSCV

Structure (SMILES) | Ki [1] [nM] | Ki [2] [nM] | Ki [3] [nM] | Ratio Ki (Homo sapiens [4]) | Ratio Ki (Homo sapiens [5]) | IC50 [6] [nM]
COc1ccc(CCN(CCCc2cccc(I)c2)CCc2ccc3c(c2)OCO3)cc1OC | 169 | 18 | 154 | 9 | 9 | –
COc1ccc(CCN(CCCc2ccc(Cl)cc2)CCc2ccc3c(c2)OCO3)cc1OC | 365 | 54 | 235 | 7 | 4 | –
Cn1ccc2cc(NC(=O)Nc3cccnc3)ccc21 | – | 21 | – | – | – | –
COc1ccc(CCN(CCCc2ccc(I)cc2)CCc2ccc3c(c2)OCO3)cc1OC | 288 | 51 | 224 | 6 | 4 | –
COc1ccc(CCN(CCCc2cccc(Cl)c2)CCc2ccc3c(c2)OCO3)cc1OC | 125 | 17 | 206 | 7 | 12 | –
COc1ccc(CCN(CCCc2ccccc2)CCc2ccc3c(c2)OCO3)cc1OC | – | – | – | 6 | 15 | –
COc1ccc(CCN(CCCc2ccccc2Cl)CCc2ccc3c(c2)OCO3)cc1OC | 43 | 3.1 | 92 | 14 | 30 | 99
COc1ccc(CCN(CCCc2cccc(F)c2)CCc2ccc3c(c2)OCO3)cc1OC | 185 | 18 | 167 | 10 | 9 | –
COc1ccc(CCN(CCCc2ccccc2Br)CCc2ccc3c(c2)OCO3)cc1OC | 54 | 3.4 | 124 | 16 | 36 | 326
COc1ccc(CCN(CCCc2ccccc2F)CCc2ccc3c(c2)OCO3)cc1OC | 65 | 1.7 | 79 | 38 | 46 | 135
COc1ccc(CCN(CCCc2ccccc2I)CCc2ccc3c(c2)OCO3)cc1OC | 75 | 13 | 68 | 6 | 5 | –
COc1ccc(CCN(CCCc2ccc(Br)cc2)CCc2ccc3c(c2)OCO3)cc1OC | 221 | 45 | 219 | 5 | 5 | –
COc1ccc(CCN(CCCc2cccc(Br)c2)CCc2ccc3c(c2)OCO3)cc1OC | 103 | 14 | 143 | 7 | 10 | –
COc1ccc(CCN(CCCc2ccc(F)cc2)CCc2ccc3c(c2)OCO3)cc1OC | 185 | 14 | 126 | 13 | 9 | –
